Key:
PDGFRα kinase = molecular target: T1, PDGFRα kinase (Homo sapiens, UniProt P16234); assay: PDGFRα kinase assay (AlphaScreen); assay type: biochemical; conditions: read-out: Ranking of IC50 values, PDGFRα
T1 construct: purchased SignalChem
Outline: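 IC50 values came from duplicate serial dilutions, with product read by AlphaScreen. The reaction ran 30 min at 30 °C, then EDTA stop: 1.5 ng recombinant enzyme, biotin-poly(Glu4:Tyr1) substrate, 10 μM ATP, 10 mM MOPS pH 7.0, 10 mM MgCl2.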

[1] = test system: phosphorylation of FLT3 and its down-stream effector STAT5; assay: Western blotting of p-FLT3 and p-STAT5 in MV4-11 cells; assay type: cell-based; conditions: Homo sapiens; at 30 nM treatment, 3 hours, FLT3-ITD positive MV4-11 leukemia cells; read-out: inhibition activity against phosphorylation of FLT3 and its down-stream effector STAT5
Outline: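 MV4-11 cells held overnight in IMDM with 0.1% FBS, then 3 million cells treated with compound for 3 h. Whole lysates immunoblotted for p-FLT3 (Tyr-591), p-STAT5 (Tyr-694) and actin. Band intensities at 30 nM compared to DMSO control; % inhibition = (1 − relative intensity) × 100.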

[2] = test system: THP-1 human acute monocytic leukemia cell with NRAS G12D mutation; assay: THP-1 cell proliferation assay (counter screen); assay type: cell-based; conditions: Homo sapiens, THP-1 cells, 72 hours treatment, CellTiter96, read-out: anti-proliferation activity THP-1 NRAS N12D, IC50 ranking
Outline: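 Viability measured as 490 nm absorbance after 2–4 h with CellTiter96 AQueous One reagent, following 72 h treatment with rising compound concentrations. THP-1 cells, 5000/well, grown in RPMI 1640 with 10% FBS and 0.05 mM 2-mercaptoethanol at 37° C, 5% CO2, plated overnight before dosing.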

[3] = test system: A375 melanoma cell with BRAF V600E mutation; assay: A375 cell proliferation assay (counter screen); assay type: cell-based, human; conditions: Homo sapiens, A-375, A375 cells, 72 hours treatment, CellTiter96, read-out: anti-proliferation activity A375 BRAF V600E, IC50 ranking
Outline: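 A375 cells (BRAF V600E) seeded at 2000 cells/well in DMEM with 10% FBS, settled overnight at 37° C, 5% CO2, then exposed to increasing compound concentrations for 72 hours. Viability read by MTS-type CellTiter96 AQueous reagent, absorbance at 490 nm after 2–4 hours.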

[4] = test system: MV4-11 human acute myeloid leukemia cell with FLT3-ITD mutation; assay: MV4-11 cell proliferation assay (CellTiter 96); assay type: cell-based; conditions: Homo sapiens, MV4-11, 72 h, MV4-11 cells, 72 hours treatment, CellTiter96; read-out: anti-proliferation activity MV4-11 (FLT3-ITD), IC50 ranking
Outline: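 Cells seeded at 6500/well in IMDM with 10% heat-inactivated FBS, left overnight at 37 °C, 5% CO2, then exposed to increasing compound concentrations for 72 h. Viability read as absorbance at 490 nm after 2–4 h with CellTiter96 AQueous One reagent.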

T1 sequence (P16234 24-1089): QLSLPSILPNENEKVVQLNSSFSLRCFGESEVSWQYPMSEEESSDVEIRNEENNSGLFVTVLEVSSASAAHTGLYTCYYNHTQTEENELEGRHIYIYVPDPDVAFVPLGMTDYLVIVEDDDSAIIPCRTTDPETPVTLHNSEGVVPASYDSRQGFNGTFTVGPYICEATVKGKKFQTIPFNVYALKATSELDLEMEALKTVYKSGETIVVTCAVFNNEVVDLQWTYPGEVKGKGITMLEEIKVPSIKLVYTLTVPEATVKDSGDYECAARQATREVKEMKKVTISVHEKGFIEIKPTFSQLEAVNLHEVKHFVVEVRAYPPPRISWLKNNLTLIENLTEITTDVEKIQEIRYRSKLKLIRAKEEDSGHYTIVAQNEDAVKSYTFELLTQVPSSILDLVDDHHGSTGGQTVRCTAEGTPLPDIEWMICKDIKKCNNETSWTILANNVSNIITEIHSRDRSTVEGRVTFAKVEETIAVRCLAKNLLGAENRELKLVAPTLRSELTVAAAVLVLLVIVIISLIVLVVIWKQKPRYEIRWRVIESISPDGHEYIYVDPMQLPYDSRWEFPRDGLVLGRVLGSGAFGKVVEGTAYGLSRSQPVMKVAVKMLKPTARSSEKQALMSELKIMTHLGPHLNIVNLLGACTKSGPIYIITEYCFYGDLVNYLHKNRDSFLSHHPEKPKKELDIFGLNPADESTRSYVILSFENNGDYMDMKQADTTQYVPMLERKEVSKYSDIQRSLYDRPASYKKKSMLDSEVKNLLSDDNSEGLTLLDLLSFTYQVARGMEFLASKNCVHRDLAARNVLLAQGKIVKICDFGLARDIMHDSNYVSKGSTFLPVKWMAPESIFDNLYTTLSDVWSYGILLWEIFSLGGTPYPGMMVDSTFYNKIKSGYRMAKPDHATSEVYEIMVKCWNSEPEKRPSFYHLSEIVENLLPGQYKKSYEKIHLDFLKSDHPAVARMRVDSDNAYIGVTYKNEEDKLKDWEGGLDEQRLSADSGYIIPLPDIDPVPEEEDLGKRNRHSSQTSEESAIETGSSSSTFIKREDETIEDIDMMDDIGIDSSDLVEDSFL

| IC50 (PDGFRα kinase) | IC50 [4] | SMILES | inhibition at 0.03 µM [1] | IC50 [2] | IC50 [3] |
| --- | --- | --- | --- | --- | --- |
| 1 to 10 nM | < 30 nM | Cn1ncc2ccc(-c3n[nH]c4c3Cc3sc(-c5ccc(S(=O)(=O)N6CCOCC6)cc5)cc3-4)cc21 [Compound 47, 4-((4-(3-(1-methyl-1H-indazol-6-yl)-1,4-dihydro-thieno[2′,3′:4,5]cyclopenta [1,2-c]pyrazol-6-yl)phenyl)sulfonyl) morpholine] | > 50% | > 10000 nM | > 10000 nM |
| 1 to 10 nM | < 30 nM | CN(C)C(=O)c1ccc(-c2cc3c(s2)Cc2c(-c4ccc5cnn(C)c5c4)n[nH]c2-3)cc1 [Compound 49, N,N-dimethyl-4-(3-(1-methyl-1H-indazol-6-yl)-1,4-dihydrothieno [2′,3′:4,5]cyclopenta [1,2-c]pyrazol-6-yl) benzamide] | > 50% | > 10000 nM | > 10000 nM |
| 10 to 30 nM | < 30 nM | CN(C)S(=O)(=O)c1ccc(-c2cc3c(s2)Cc2c(-c4ccc5cnn(C)c5c4)n[nH]c2-3)cc1 [Compound 50, N,N-dimethyl-4-(3-(1-methyl-1H-indazol-6-yl)-1,4-dihydrothieno [2′,3′:4,5]cyclopenta [1,2-c]pyrazol-6-yl) benzenesulfonamide] | > 50% | > 10000 nM | > 10000 nM |
| 1 to 10 nM | < 30 nM | C[C@@H]1CN(Cc2ccc(-c3cc4c(s3)Cc3c(-c5ccc6cnn(C)c6c5)n[nH]c3-4)cc2)C[C@H](C)O1 [Compound 54, (2S,6R)-2,6-dimethyl-4-(4-(3-(1-methyl-1H-indazol-6-yl)-1,4-dihydro-thieno[2′,3′:4,5]cyclopenta [1,2-c]pyrazol-6-yl)benzyl)morpholine] | > 50% | > 10000 nM | > 10000 nM |
| 1 to 10 nM | < 30 nM | Cn1ncc2ccc(-c3n[nH]c4c3Cc3sc(-c5ccc(CN6CCOCC6=O)cc5)cc3-4)cc21 [Compound 59, 4-(4-(3-(1-methyl-1H-indazol-6-yl)-1,4-dihydro-thieno[2′,3′:4,5]cyclopenta [1,2-c]pyrazol-6-yl)benzyl)morpholin-3-one] | > 50% | > 10000 nM | > 10000 nM |
| 1 to 10 nM | < 30 nM | Cn1ncc2ccc(-c3n[nH]c4c3Cc3sc(-c5ccc(CN6CCCCC6=O)cc5)cc3-4)cc21 [Compound 61, 1-(4-(3-(l-methyl-1H-indazol-6-yl)-1,4-dihydro-thieno[2′,3′:4,5]cyclopenta [1,2-c]pyrazol-6-yl)benzyl)piperidin-2-one] | > 50% | > 10000 nM | > 10000 nM |
| 1 to 10 nM | < 30 nM | Cn1ncc2ccc(-c3n[nH]c4c3Cc3sc(-c5ccc(CN6CCNC(=O)C6)cc5)cc3-4)cc21 [Compound 63, 4-(4-(3-(1-methyl-1H-indazol-6-yl)-1,4-dihydro-thieno[2′,3′:4,5]cyclopenta [1,2-c]pyrazol-6-yl)benzyl)piperazin-2-one] | > 50% | > 10000 nM | > 10000 nM |
| 10 to 30 nM | < 30 nM | Cn1ncc2ccc(-c3n[nH]c4c3Cc3sc(-c5ccc(CN6CCCC6=O)cc5)cc3-4)cc21 [Compound 64, 1-(4-(3-(1-methyl-1H-indazol-6-yl)-1,4-dihydro-thieno[2′,3′:4,5]cyclopenta [1,2-c]pyrazol-6-yl)benzyl)pyrrolidin-2-one] | > 50% | > 10000 nM | > 10000 nM |
| 1 to 10 nM | < 30 nM | CC1C(=O)N(C)CCN1Cc1ccc(-c2cc3c(s2)Cc2c(-c4ccc5cnn(C)c5c4)n[nH]c2-3)cc1 (centres unmarked) [Compound 65, 1,3-dimethyl-4-(4-(3-(1-methyl-1H-indazol-6-yl)-1,4-dihydrothieno [2′,3′:4,5]cyclopenta [1,2-c]pyrazol-6-yl)benzyl)piperazin-2-one] | > 50% | > 10000 nM | > 10000 nM |

The remaining lines, values behind:

| SMILES | IC50 (PDGFRα kinase) | IC50 [4] | inhibition at 0.03 µM [1] | IC50 [2] | IC50 [3] |
| --- | --- | --- | --- | --- | --- |
| Cn1ncc2ccc(-c3n[nH]c4c3Cc3sc(-c5cnc(N)nc5)cc3-4)cc21 [Compound 45, 5-(3-(1-methyl-1H-indazol-6-yl)-1,4-dihydrothieno [2′,3′:4,5]cyclopenta[l,2-c]pyrazol-6-yl)pyrimidin-2-amine] | 10 to 30 nM | < 30 nM | > 50% | > 10000 nM | > 10000 nM |
| Cn1cc(-c2cc3c(s2)Cc2c(-c4ccc5cnn(C)c5c4)n[nH]c2-3)cc1C(=O)N1CCOCC1 [Compound 46, (1-methyl-4-(3-(1-methyl-1H-indazol-6-yl)-1,4-dihydrothieno[2′,3′:4,5]cyclopenta[1,2-c]pyrazol-6-yl)-1H-pyrrol-2-yl) (morpholino)methanone] | 1 to 10 nM | < 30 nM | > 50% | > 10000 nM | > 10000 nM |
| Cn1ncc2ccc(-c3n[nH]c4c3Cc3sc(-c5csc(C(=O)N6CCOCC6)c5)cc3-4)cc21 [Compound 48, (4-(3-(1-methyl-1H-indazol-6-yl)-1,4-dihydro-thieno[2′,3′:4,5]cyclopenta [1,2-c]pyrazol-6-yl)thiophen-2-yl) (morpholino)methanone] | 1 to 10 nM | < 30 nM | > 50% | > 10000 nM | > 10000 nM |
| Cn1ncc2ccc(-c3n[nH]c4c3Cc3sc(-c5ccc(CN6CCOCC6)s5)cc3-4)cc21 [Compound 51, 4-((5-(3-(1-methyl-1H-indazol-6-yl)-1,4-dihydro-thieno[2′,3′:4,5]cyclopenta [1,2-c]pyrazol-6-yl)thiophen-2-yl)methyl) morpholine] | 10 to 30 nM | < 30 nM | > 50% | > 10000 nM | > 10000 nM |
| Cn1ncc2ccc(-c3n[nH]c4c3Cc3sc(-c5csc(CN6CCOCC6)c5)cc3-4)cc21 [Compound 52, 4-((4-(3-(1-methyl-1H-indazol-6-yl)-1,4-dihydro-thieno[2′,3′:4,5]cyclopenta [1,2-c]pyrazol-6-yl)thiophen-2-yl)methyl) morpholine] | 10 to 30 nM | < 30 nM | > 50% | > 10000 nM | > 10000 nM |
| Cn1ncc2ccc(-c3n[nH]c4c3Cc3sc(-c5cc(F)c(CN6CCOCC6)c(F)c5)cc3-4)cc21 [Compound 53, 4-(2,6-difluoro-4-(3-(1-methyl-1H-indazol-6-yl)-1,4-dihydrothieno [2′,3′:4,5]cyclopenta [1,2-c]pyrazol-6-yl)benzyl)morpholine] | 30 to 100 nM | 30 to 100 nM | > 50% | > 10000 nM | > 10000 nM |
| Cn1ncc2ccc(-c3n[nH]c4c3Cc3sc(-c5cc(C(=O)N6CCOCC6)ccn5)cc3-4)cc21 [Compound 56, (2-(3-(1-methyl-1H-indazol-6-yl)-1,4-dihydro-thieno[2′,3′:4,5]cyclopenta [1,2-c]pyrazol-6-yl)pyridin-4-yl)(morpholino) methanone] | 1 to 10 nM | < 30 nM | > 50% | > 10000 nM | > 10000 nM |
| Cn1ncc2ccc(-c3n[nH]c4c3Cc3sc(C5=CCN(C(=O)N6CCOCC6)CC5)cc3-4)cc21 [Compound 57, (4-(3-(1-methyl-1H-indazol-6-yl)-1,4-dihydro-thieno[2′,3′:4,5]cyclopenta [1,2-c]pyrazol-6-yl)-3,6-dihydropyridin-1(2H)-yl) (morpholino)methanone] | 10 to 30 nM | < 30 nM | > 50% | > 10000 nM | > 10000 nM |
| Cn1ncc2ccc(-c3n[nH]c4c3Cc3sc(C5CCN(C(=O)OC(C)(C)C)CC5)cc3-4)cc21 [Compound 58, tert-butyl-4-(3-(1-methyl-1H-indazol-6-yl)-1,4-dihydrothieno[2′,3′:4,5]cyclopenta[1,2-c]pyrazol-6-yl)piperidine-1-carboxylate] | 30 to 100 nM | 30 to 100 nM | > 50% | > 10000 nM | > 10000 nM |
| Cn1ncc2ccc(-c3n[nH]c4c3Cc3sc(-c5csc(C(=O)N6CCOCC6)n5)cc3-4)cc21 [Compound 60, (4-(3-(1-methyl-1H-indazol-6-yl)-1,4-dihydro-thieno[2′,3′:4,5]cyclopenta [1,2-c]pyrazol-6-yl)thiazol-2-yl)(morpholino) methanone] | 1 to 10 nM | < 30 nM | > 50% | 1000 to 10000 nM | 1000 to 10000 nM |

Source: patent US12448394B2, “Heterocyclic pyrazole derivatives as type III receptor tyrosine kinase inhibitors” (DEVELOPMENT CENTER FOR BIOTECHNOLOGY, priority 2019, dated 2025)
